Holding throughout (assay type): functional
Assay [1] has as its system Pythium dissimile. Put plainly: Fungicidal activity against Pythium dissimile grown on compound supplemented artificial media assessed as control of disease or pathogen at 20 ppm measured after 5 to 14 days by artificial media assay.
Assay [2] deals with Botrytis cinerea. Put plainly: Fungicidal activity against Botryotinia fuckeliana grown on compound supplemented artificial media assessed as control of disease or pathogen at 20 ppm measured after 5 to 14 days by artificial media assay.
Assay [3] concerns Alternaria solani. Put plainly: Fungicidal activity against Alternaria solani grown on compound supplemented artificial media assessed as control of disease or pathogen at 20 ppm measured after 5 to 14 days by artificial media assay.
Assay [4] relates to Pythium dissimile. Put plainly: Fungicidal activity against Pythium dissimile grown on compound supplemented artificial media assessed as control of disease or pathogen at 2 ppm measured after 5 to 14 days by artificial media assay.
Assay [5] in a line: Fungicidal activity against Zymoseptoria tritici infected on compound pre-treated wheat leaf pieces assessed as control of disease or pathogen at 100 ppm measured after 5 to 14 days by leaf-piece assay.
The test system of the next assay is Uromyces viciae-fabae. Put plainly: Fungicidal activity against Uromyces viciae-fabae infected compound pre-treated bean leaf pieces assessed as control of disease or pathogen at 100 ppm measured after 5 to 14 days by leaf-piece assay.
The subject of assay [6] is Alternaria solani. Put plainly: Fungicidal activity against Alternaria solani grown on compound supplemented artificial media assessed as control of disease or pathogen at 2 ppm measured after 5 to 14 days by artificial media assay.
Assay [7] concerns Botrytis cinerea. Description: Fungicidal activity against Botryotinia fuckeliana grown on compound supplemented artificial media assessed as control of disease or pathogen at 2 ppm measured after 5 to 14 days by artificial media assay.

Molecules are shown by their SMILES.

As for `Clc1ncoc1-c1cn(CC2CC2)c2ccccc12`, the Activity in the assay on Pythium dissimile [1] stood at 99%; in the assay with Botrytis cinerea [2], 0%; with Alternaria solani [3], 0%; in the assay with Pythium dissimile [4], 0%; in assay [5], 33%; in the assay with Uromyces viciae-fabae, 55%. Further, the Activity with Alternaria solani [6] and in the assay with Botrytis cinerea [7] was 0% each time.

On to `ClC(Cl)=CCn1cc(-c2ocnc2Br)c2ccccc21`, for which the Activity (in the assay with Pythium dissimile [1]; in the assay with Botrytis cinerea [2]; in the assay on Alternaria solani [3]; in the assay with Pythium dissimile [4]; in assay [5]; in the assay with Uromyces viciae-fabae) was 0% in each case. Further, the Activity with Alternaria solani [6] and in the assay on Botrytis cinerea [7] was 0% each time.

In the case of `O=C(C(Cl)Cl)n1cc(-c2ocnc2Cl)c2ccccc21`, the Activity in the assay with Pythium dissimile [1] amounted to 99%; in the assay on Botrytis cinerea [2] it was 99%; in the assay with Alternaria solani [3] it was 99%; with Pythium dissimile [4], 0%; in assay [5], 0%; in the assay on Uromyces viciae-fabae, 0%. Further, the Activity in the assay with Alternaria solani [6] and with Botrytis cinerea [7] was 0% throughout.

Turning to `O=C(n1cc(-c2ocnc2Cl)c2ccccc21)C(Cl)(Cl)Cl`, the Activity with Pythium dissimile [1] stood at 99%; in the assay on Botrytis cinerea [2], 99%; in the assay on Alternaria solani [3] it was 99%; with Pythium dissimile [4], 0%; in assay [5] it was 0%; in the assay with Uromyces viciae-fabae it was 55%. Besides, the Activity with Alternaria solani [6] and in the assay with Botrytis cinerea [7] was 0% in each case.

For the molecule `CC(Cl)C(=O)n1cc(-c2ocnc2Br)c2ccccc21` (stereo unspecified), the Activity with Pythium dissimile [1] stood at 0%; with Botrytis cinerea [2], 0%; in the assay with Alternaria solani [3], 55%; in the assay on Pythium dissimile [4] it was 0%; in assay [5] it was 0%; with Uromyces viciae-fabae, 27%. The Activity in the assay on Alternaria solani [6] and with Botrytis cinerea [7] was 0% each time.

Take `CCOC(=O)C(=O)n1cc(-c2ocnc2Cl)c2ccccc21`: the Activity came to 77% in the assay with Pythium dissimile [1]; 99% in the assay on Botrytis cinerea [2]; 99% with Alternaria solani [3]; 0% in the assay with Pythium dissimile [4]; 33% in assay [5]; 0% in the assay on Uromyces viciae-fabae. Besides, the Activity with Alternaria solani [6] and in the assay on Botrytis cinerea [7] was 0% in each case.

Regarding `COCC(=O)n1cc(-c2ocnc2Br)c2ccccc21`, the Activity in the assay on Pythium dissimile [1] worked out at 77%; with Botrytis cinerea [2], 99%; in the assay on Alternaria solani [3], 99%; in the assay with Pythium dissimile [4] it was 0%; in assay [5] it was 0%; in the assay on Uromyces viciae-fabae, 77%. Further, the Activity in the assay on Alternaria solani [6] and in the assay on Botrytis cinerea [7] was 0% each time.

As for `Cn1cc(-c2ocnc2Cl)c2ccccc21`, the Activity in the assay with Pythium dissimile [1] amounted to 0%; in the assay with Botrytis cinerea [2], 0%; in the assay with Alternaria solani [3] it was 0%; with Pythium dissimile [4], 0%; in assay [5], 0%; with Uromyces viciae-fabae, 77%. Besides, the Activity in the assay on Alternaria solani [6] and with Botrytis cinerea [7] was 0% each time.

On to `Fc1ccc(Cn2cc(-c3ocnc3Cl)c3ccccc32)c(F)c1`, for which the Activity amounted to 0% with Pythium dissimile [1]; 0% in the assay with Botrytis cinerea [2]; 0% in the assay on Alternaria solani [3]; 0% in the assay with Pythium dissimile [4]; 0% in assay [5]; 27% in the assay with Uromyces viciae-fabae. For the same molecule, the Activity in the assay with Alternaria solani [6] and in the assay with Botrytis cinerea [7] was 0% in each case.

Take `CCS(=O)(=O)n1cc(-c2ocnc2Cl)c2ccccc21`: the Activity is recorded as 27% in the assay with Pythium dissimile [1]; 0% in the assay on Botrytis cinerea [2]; 0% in the assay with Alternaria solani [3]; 0% in the assay on Pythium dissimile [4]; 0% in assay [5]; 55% in the assay on Uromyces viciae-fabae. Besides, the Activity with Alternaria solani [6] and in the assay with Botrytis cinerea [7] was 0% each time.

`C=CCn1cc(-c2ocnc2Cl)c2ccccc21`: the Activity with Pythium dissimile [1] was determined as 0%; in the assay with Botrytis cinerea [2] it was 0%; in the assay with Alternaria solani [3], 0%; with Pythium dissimile [4] it was 0%; in assay [5], 0%; with Uromyces viciae-fabae, 99%. For the same molecule, the Activity in the assay with Alternaria solani [6] and in the assay on Botrytis cinerea [7] was 0% throughout.

For the molecule `O=C(CCl)n1cc(-c2ocnc2Br)c2ccccc21`, the Activity in the assay on Pythium dissimile [1] was found to be 99%; with Botrytis cinerea [2], 99%; with Alternaria solani [3], 99%; with Pythium dissimile [4], 0%; in assay [5] it was 18%; with Uromyces viciae-fabae, 49%. In addition, the Activity with Alternaria solani [6] was 27%; with Botrytis cinerea [7], 0%.

`COC(=O)n1cc(-c2ocnc2Br)c2ccccc21`: the Activity (with Pythium dissimile [1]; in the assay with Alternaria solani [3]; with Pythium dissimile [4]; in assay [5]; in the assay with Uromyces viciae-fabae; with Alternaria solani [6]) was 0% each time.

For the molecule `CCC(=O)n1cc(-c2ocnc2Br)c2ccccc21`, the Activity (with Pythium dissimile [1]; in the assay on Botrytis cinerea [2]; with Alternaria solani [3]; with Pythium dissimile [4]; in assay [5]; in the assay with Uromyces viciae-fabae) was 0% in each case. The Activity with Alternaria solani [6] and with Botrytis cinerea [7] was 0% each time.

Consider `CC(Cl)C(=O)n1cc(-c2ocnc2Cl)c2ccccc21` (stereo unspecified), for which the Activity in the assay with Pythium dissimile [1] was 0%; in the assay with Botrytis cinerea [2], 0%; in the assay with Alternaria solani [3], 55%; with Pythium dissimile [4], 0%; in assay [5] it was 0%; with Uromyces viciae-fabae, 55%. Moreover, the Activity in the assay with Alternaria solani [6] and with Botrytis cinerea [7] was 0% throughout.

With `CCC(=O)n1cc(-c2ocnc2Cl)c2ccccc21`, the Activity (in the assay with Pythium dissimile [1]; in the assay with Botrytis cinerea [2]; in the assay on Alternaria solani [3]; with Pythium dissimile [4]; in assay [5]; in the assay on Uromyces viciae-fabae) was 0% in each case. The Activity with Alternaria solani [6] and in the assay on Botrytis cinerea [7] was 0% throughout.

Regarding `CCS(=O)(=O)n1cc(-c2ocnc2Br)c2ccccc21`, the Activity (with Pythium dissimile [1]; in the assay on Botrytis cinerea [2]; in the assay with Alternaria solani [3]; with Pythium dissimile [4]; in assay [5]; with Uromyces viciae-fabae) was 0% in each case. The Activity in the assay with Alternaria solani [6] and in the assay with Botrytis cinerea [7] was 0% throughout.

For the molecule `CC(=O)n1cc(-c2ocnc2Cl)c2ccccc21`, the Activity (in the assay with Pythium dissimile [1]; in the assay on Botrytis cinerea [2]; in the assay on Alternaria solani [3]; in the assay on Pythium dissimile [4]; in assay [5]; in the assay on Uromyces viciae-fabae) was 0% throughout. Besides, the Activity with Alternaria solani [6] and in the assay on Botrytis cinerea [7] was 0% throughout.

For `Clc1ncoc1-c1cn(CC2CO2)c2ccccc12` (stereo unspecified), the Activity in the assay on Pythium dissimile [1] worked out at 0%; in the assay with Botrytis cinerea [2], 0%; with Alternaria solani [3], 0%; with Pythium dissimile [4], 0%; in assay [5], 0%; with Uromyces viciae-fabae, 77%. Further, the Activity in the assay on Alternaria solani [6] and in the assay on Botrytis cinerea [7] was 0% throughout.

With `CCOC(=O)Cn1cc(-c2ocnc2Cl)c2ccccc21`, the Activity (in the assay on Pythium dissimile [1]; in the assay on Botrytis cinerea [2]; with Alternaria solani [3]; in the assay on Pythium dissimile [4]; in assay [5]; in the assay with Uromyces viciae-fabae) was 0% throughout. Besides, the Activity with Alternaria solani [6] and in the assay with Botrytis cinerea [7] was 0% throughout.

Turning to `COC(=O)n1cc(-c2ocnc2Cl)c2ccccc21`, the Activity (with Pythium dissimile [1]; with Alternaria solani [3]; in the assay with Pythium dissimile [4]; in assay [5]; in the assay on Uromyces viciae-fabae; in the assay on Alternaria solani [6]) was 0% each time.

For `Cn1cc(-c2ocnc2Br)c2ccccc21`, the Activity was determined as 0% in the assay with Pythium dissimile [1]; 0% in the assay with Botrytis cinerea [2]; 0% with Alternaria solani [3]; 0% in the assay with Pythium dissimile [4]; 0% in assay [5]; 55% in the assay on Uromyces viciae-fabae. For the same molecule, the Activity in the assay on Alternaria solani [6] and in the assay on Botrytis cinerea [7] was 0% each time.

Consider `O=C(C(Cl)Cl)n1cc(-c2ocnc2Br)c2ccccc21`, for which the Activity amounted to 77% with Pythium dissimile [1]; 99% in the assay with Botrytis cinerea [2]; 99% with Alternaria solani [3]; 0% in the assay with Pythium dissimile [4]; 0% in assay [5]; 27% in the assay on Uromyces viciae-fabae. Also, the Activity in the assay with Alternaria solani [6] and in the assay with Botrytis cinerea [7] was 0% throughout.

For `C=CCn1cc(-c2ocnc2Br)c2ccccc21`, the Activity in the assay on Pythium dissimile [1] worked out at 0%; in the assay on Botrytis cinerea [2], 27%; in the assay with Alternaria solani [3], 0%; in the assay with Pythium dissimile [4] it was 0%; in assay [5] it was 18%; in the assay on Uromyces viciae-fabae, 49%. In addition, the Activity in the assay with Alternaria solani [6] and with Botrytis cinerea [7] was 0% throughout.

On to `CC(=O)n1cc(-c2ocnc2Br)c2ccccc21`, for which the Activity (with Pythium dissimile [1]; in the assay on Botrytis cinerea [2]; in the assay with Alternaria solani [3]; in the assay on Pythium dissimile [4]; in assay [5]; with Uromyces viciae-fabae) was 0% each time. Moreover, the Activity in the assay with Alternaria solani [6] and in the assay on Botrytis cinerea [7] was 0% each time.

The values are drawn from ChEMBL document CHEMBL3046856, “Synthesis and fungicidal activity of novel pimprinine analogues” (2012).
